Values belong to the molecule of their own block, whether it stands above or below them.
Assays:
HuR-mRNA interaction = molecular target: T1, HuR-mRNA interaction (Homo sapiens, UniProt Q15717); experiment: AlphaScreen assay, inhibition of HuR-mRNA interaction; format: binding; settings: for IC50: rHuR and biotinylated RNA probe
T1 construct: made in house; host or cells: HEK293T cells
Method: The full encoding sequence for human HuR/ELAVL1 gene (NM001419) has been amplified from cDNA obtained by retro-transcription from RNA of MCF7 cells and inserted into the pCMV6-AC-Myc-His PrecisionShuttle vector (Origene Technologies). The pCMV6-HuR recombinant vector has been transfected into HEK293T cells by using the transfection reagent Lipofectamine® 2000 (Life Technologies) according to the manufacturer protocol. HEK293T cells have been cultured in a complete medium (10% DMEM, 10% FBS, 2 mM Glutamine, 100 units/ml penicillin+100 μg/ml streptomycin) in humidified 5% CO2 atmosphere at 37° C.
Two types of assay have been performed, in order to define the profile of the aza-tanshinones and their inhibitory activity. REMSA (RNA-EMSA, RNA electrophoresis mobility shift assay) in 5% polyacrylamide gel requires the use of a RNA fluorescent probe (5′-Cy3-[…]), while the AlphaScreen assay required a RNA 5′-biotinylated probe (BiTNF, 5′-[…]). […] IC50 values have been obtained by means of non-linear regression of the fit of the log(dose) response by using the same software.

[1] = alamar Blue viability assay; format: cell-based; settings: human, 24 hours, vs DMSO
Method: (§1) Tumor cell lines of metastatic breast cancer (MDA-MB-231), breast cancer (MCF7), human monocytic leukemia (THP-1) and pancreatic carcinoma (PANC-1) have been cultured in a complete DMEM or RPMI 1640 (Gibco Life Technologies) supplemented with 10% fetal bovine serum (FBS, Lonza), 2 mM L-glutamine and 100 U/ml penicillin-streptomycin (Lonza). The cell lines have been cultured at 37° C. in 5% CO2 and have been regularly tested for Mycoplasma contamination. The viability has been measured by means of alamar Blue assay (Thermo Fisher) under treatment for 24 hours with nanomolar to micromolar doses of aza-tanshinones. The mean viability and the standard deviation (SD) per each test compound have been obtained from the dose-response curves for triple doses (0.01, 0.1, 1. 10. 50 μM) in comparison with the control vehicle (DMSO).
(§2) The group of cell lines used in Paragraph 8.2, with the addition of the tumor cell lines of the metastatic breast cancer SK-BR-3 and of the colon adenocarcinoma SW-480, has been used to measure the IC50/cytotoxicity potency of compound 26. The viability assays have been performed as shown in Paragraph 8.2.

[2] = alamar Blue viability assay; format: cell-based, human; settings: human, THP-1 cells (monocytic leukemia), 24 hours, vs DMSO; for viability at 24 h, 10 µM: THP1, 10 μM; for viability at 24 h, 50 µM: THP1, 50 μM
Method: as §1, §2

[3] = test system: THP-1 human leukemia monocytes; experiment: Cytokine mRNA levels by Q-RT-PCR; format: cell-based; settings: THP-1, LPS 26 vs LPS DMSO = 1
Method: THP-1 human leukemia monocytes (5*10^4/well) have been seeded in a 6-well plate and cultured under standard conditions for 24 hours as already described. The mRNA total levels for a group of cytokines have been quantified by means of standard quantitative real-time PCR (Q-RT-PCR). Two-way ANOVA has been applied for a statistical significance of the effects of compound 26 on the decrease of the mRNA of the cytokines.

PANC-1 = experiment: alamar Blue viability assay; format: cell-based; settings: for Viability: vs DMSO
Method: as §1, §2

MDA-MB-231 [4] = experiment: alamar Blue viability assay; format: cell-based; settings: for Viability: vs DMSO
Method: as §1, §2

MCF7 = experiment: alamar Blue viability assay; format: cell-based; settings: for Viability: vs DMSO
Method: as §1, §2

SW-480 = experiment: alamar Blue viability assay; format: cell-based
Method: as §1, §2

SK-BR-3 = experiment: alamar Blue viability assay; format: cell-based
Method: as §1, §2

MDA-MB-231 cells = experiment: xCELLigence trans-well migration assay; format: cell-based; settings: MDA-MB-231, THP1-conditioned medium
Source text: Migration assays have been carried out by using the xCELLigence RTCA DP Instrument (Roche) by seeding 5,000 cells/well at t0 in CIM-Plates-16 (Roche), using the 1% FBS medium (THP1 conditions) in the lower chamber and MDA-MB-231 cells seeded in the same way in the upper chamber. The ability of the MDA-MB-231 cells to migrate depends also on the presence of cytokines regulated by HuR in the surrounding environment.

[5] = test system: TNF mRNA in MCF-7 breast cancer cells; experiment: Downregulation of TNF mRNA with LPS co-treatment; format: cell-based
Method: MCF-7 breast cancer cells (5*10^4/well) have been seeded in 6-well plates and cultured under standard conditions for 24 hours. The MCF-7 cells have then been treated for 3 hours in a complete medium with compound 26, or with DMSO/control vehicle. Three hours of treatment with DHTS in the MCF-7 cells have been enough to observe HuR-dependent post-transcriptional effects (44), whereby the same experimental conditions have been used here, including the co-treatment with lipopolysaccharide (LPS) as positive control to induce the TNF expression.

THP-1 = experiment: alamar Blue viability assay; format: cell-based, human; settings: for Viability: vs DMSO
Method: as §1, §2

MDA-MB-231 [6] = experiment: Scratch assay; format: cell-based; settings: 24 hours (DMSO 35 ± 1.92)
Method: (§3) Scratch assays have been carried out on 6-well plates and, after treatment for 24 hours with aza-tanshinone 26, the empty area of the scratched wells has been calculated by using the ImageJ software. The experiments have been carried out in duplicate.

PANC1 = experiment: Scratch assay; format: cell-based; settings: 24 hours
Method: as §3

[7] = MCF7 cells (breast cancer), MCF7, 10 μM
[8] = MCF7 cells (breast cancer), MCF7, 50 μM
[9] = MDA-MB-231 cells (metastatic breast cancer), MDA-MB-231, 10 μM
[10] = MDA-MB-231 cells (metastatic breast cancer), MDA-MB-231, 50 μM
[11] = PANC-1 cells (pancreatic carcinoma), PANC-1, 10 μM
[12] = PANC-1 cells (pancreatic carcinoma), PANC-1, 50 μM

T1 sequence (Q15717 whole entry): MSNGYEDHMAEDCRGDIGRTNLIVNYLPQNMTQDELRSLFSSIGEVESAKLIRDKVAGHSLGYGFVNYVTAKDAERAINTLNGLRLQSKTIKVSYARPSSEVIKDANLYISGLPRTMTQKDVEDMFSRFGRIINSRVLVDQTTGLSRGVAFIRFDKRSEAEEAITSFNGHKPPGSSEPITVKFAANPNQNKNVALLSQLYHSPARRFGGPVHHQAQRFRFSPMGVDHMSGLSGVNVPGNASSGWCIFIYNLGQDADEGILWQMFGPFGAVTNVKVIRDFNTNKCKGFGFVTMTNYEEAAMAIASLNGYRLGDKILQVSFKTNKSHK

IC50 (HuR-mRNA interaction): 241 ± 42 nM
SMILES: O=C1C=Cc2c(c(-c3ccccc3)cn2S(=O)(=O)c2ccc([N+](=O)[O-])cc2)C1=O [Compound 23, 1-(p-Nitrophenylsulfonyl)-3-phenyl-4,5-dioxo indole]
viability at 24 h, 10 µM [1, 7]: 100%
viability at 24 h, 50 µM [1, 8]: 66%
viability at 24 h, 10 µM [1, 9]: 104%
viability at 24 h, 50 µM [1, 10]: 80%
viability at 24 h, 10 µM [1, 11]: 92%
viability at 24 h, 50 µM [1, 12]: 36%
viability at 24 h, 10 µM [2]: 98%
viability at 24 h, 50 µM [2]: 31%

IC50 (HuR-mRNA interaction): 342 ± 64 nM
SMILES: O=C1C=Cc2c(c(-c3ccccc3)cn2S(=O)(=O)c2cccc([N+](=O)[O-])c2)C1=O [Compound 24, 1-(m-Nitrophenylsulfonyl)-3-phenyl-4,5-dioxoindole]
viability at 24 h, 10 µM [1, 7]: 100%
viability at 24 h, 50 µM [1, 8]: 54%
viability at 24 h, 10 µM [1, 9]: 94%
viability at 24 h, 50 µM [1, 10]: 36%
viability at 24 h, 10 µM [1, 11]: 91%
viability at 24 h, 50 µM [1, 12]: 20%
viability at 24 h, 10 µM [2]: 100%
viability at 24 h, 50 µM [2]: 27%

IC50 (HuR-mRNA interaction): 251 ± 31 nM
SMILES: O=C1C=Cc2c(c(-c3ccccc3)cn2S(=O)(=O)c2cccc(F)c2)C1=O [Compound 27, 1-(m-Fluorophenylsulfonyl)-3-phenyl-4,5-dioxo indole]
viability at 24 h, 10 µM [1, 7]: 108%
viability at 24 h, 50 µM [1, 8]: 79%
viability at 24 h, 10 µM [1, 9]: 103%
viability at 24 h, 50 µM [1, 10]: 51%
viability at 24 h, 10 µM [1, 11]: 102%
viability at 24 h, 50 µM [1, 12]: 20%
viability at 24 h, 10 µM [2]: 83%
viability at 24 h, 50 µM [2]: 32%

IC50 (HuR-mRNA interaction): 287 ± 30 nM
SMILES: COc1ccc(-c2cn(S(=O)(=O)c3ccccc3)c3c2C(=O)C(=O)C=C3)cc1 [Compound 28, 1-phenylsulfonyl-3-(p-methoxyphenyl)-4,5-dioxo indole]
viability at 24 h, 10 µM [1, 7]: 91%
viability at 24 h, 50 µM [1, 8]: 75%
viability at 24 h, 10 µM [1, 9]: 106%
viability at 24 h, 50 µM [1, 10]: 57%
viability at 24 h, 10 µM [1, 11]: 90%
viability at 24 h, 50 µM [1, 12]: 32%
viability at 24 h, 10 µM [2]: 105%
viability at 24 h, 50 µM [2]: 46%

IC50 (HuR-mRNA interaction): 352 ± 57 nM
SMILES: COc1cccc(-c2cn(S(=O)(=O)c3ccccc3)c3c2C(=O)C(=O)C=C3)c1 [Compound 29, 1-Phenylsulfonyl-3-(m-methoxyphenyl)-4,5-dioxoindole]

The next lines start with the molecule.

SMILES: O=C1C=Cc2c(c(-c3ccccc3)cn2S(=O)(=O)c2ccc(F)cc2)C1=O [Compound 25, 1-(p-Fluorophenylsulfonyl)-3-phenyl-4,5-dioxo indole]
viability at 24 h, 10 µM [1, 7]: 100%
viability at 24 h, 50 µM [1, 8]: 63%
viability at 24 h, 10 µM [1, 9]: 103%
viability at 24 h, 50 µM [1, 10]: 50%
viability at 24 h, 10 µM [1, 11]: 100%
viability at 24 h, 50 µM [1, 12]: 29%
viability at 24 h, 10 µM [2]: 100%
viability at 24 h, 50 µM [2]: 35%

SMILES: O=C1C=Cc2c(c(-c3ccccc3)cn2S(=O)(=O)c2ccccc2)C1=O [Compound 26, 1-Phenylsulfonyl-3-phenyl-4,5-dioxo indole]
CCL2 mRNA level [3]: 0.88
CCL5 mRNA level [3]: 0.51
CCL8 mRNA level [3]: 0.00
IFNA1 mRNA level [3]: 0.46
IFNB1 mRNA level [3]: 0.33
IFNG mRNA level [3]: 0.38
IL1A mRNA level [3]: 1.04
IL1B mRNA level [3]: 0.22
IL2 mRNA level [3]: 1.18
IL4 mRNA level [3]: 0.82
IL7 mRNA level [3]: 0.56
IL8 mRNA level [3]: 0.15
IL10 mRNA level [3]: 0.16
IL13 mRNA level [3]: 0.53
IL15 mRNA level [3]: 0.91
IL17A mRNA level [3]: 0.30
IL18 mRNA level [3]: 0.36
IL19 mRNA level [3]: 0.01
TNF mRNA level [3]: 0.38
IC50 (PANC-1; Homo sapiens, PANC-1, cytotoxicity, 24 hours): 6.27 ± 0.07 µM
% cell death (PANC-1; PANC-1): 49%
IC50 (MDA-MB-231 [4]; Homo sapiens, MDA-MB-231, cytotoxicity, 24 hours): 1570 ± 40 nM
% cell death (MDA-MB-231 [4]; MDA-MB-231): 66%
IC50 (MCF7; Homo sapiens, MCF7, cytotoxicity, 24 hours): 3.85 ± 0.08 µM
% cell death (MCF7; MCF7): 71%
IC50 (SW-480; Homo sapiens, SW480, cytotoxicity, 24 hours): 4.81 ± 0.23 µM
% cell death (SW-480; SW480): 62%
IC50 (SK-BR-3; Homo sapiens, SK-BR-3, cytotoxicity, 24 hours): 5.18 ± 0.11 µM
% cell death (SK-BR-3; SK-BR-3): 57%
Minimum of trans-well migration (MDA-MB-231 cells; 26 1 μM (LPS control 0.7176)): 0.1057
Maximum of trans-well migration (MDA-MB-231 cells; 26 1 μM (LPS control 3.053)): 1.246
Minimum of trans-well migration (MDA-MB-231 cells; 26 5 μM (LPS control 0.7176)): 0.1416
Maximum of trans-well migration (MDA-MB-231 cells; 26 5 μM (LPS control 3.053)): 0.3311
TNF mRNA level ([5]; MCF-7, LPS+26, 3 hours (LPS+DMSO 1.62)): 1.00
TNF RNA amount ([5]; MCF-7, LPS+26 relative to LPS+DMSO, 3 hours): 62%
reduction of the TNF mRNA with respect to the control ([5]; MCF-7, after 3 hours): 35%
IC50 (THP-1; Homo sapiens, THP-1, cytotoxicity, 24 hours): 9.77 ± 0.15 µM
% cell death (THP-1; THP-1): 52%
empty area of the scratched wells (MDA-MB-231 [6]; MDA-MB-231, 26 1 μM): 45 ± 4
empty area of the scratched wells (MDA-MB-231 [6]; MDA-MB-231, 26 5 μM): 45 ± 1
empty area of the scratched wells (PANC1; PANC1, 26 1 μM): 38 ± 7
empty area of the scratched wells (PANC1; PANC1, 26 5 μM): 32 ± 0.01

SMILES: O=C1C(=O)c2c(-c3ccccc3)cn(S(=O)(=O)c3ccccc3)c2C2=C1C1CCC2CC1 [Compound 32, 3-Phenyl-1-phenylsulfonyl-4,5-dioxo-6,9-ethanbenzo[g]indole]
IC50 (HuR-mRNA interaction): 121 ± 55 nM
Viability (PANC-1; PANC-1, 10 μM, 24 hours): 0.85
Viability (PANC-1; PANC-1, 50 μM, 24 hours): 0.15
Viability (MDA-MB-231 [4]; MDA-MB-231, 10 μM, 24 hours): 1.00
Viability (MDA-MB-231 [4]; MDA-MB-231, 50 μM, 24 hours): 0.28
Viability (MCF7; MCF7, 10 μM, 24 hours): 1.09
Viability (MCF7; MCF7, 50 μM, 24 hours): 0.14
Viability (THP-1; THP1, 10 μM, 24 hours): 0.55
Viability (THP-1; THP1, 50 μM, 24 hours): 0.00
cell death (THP-1; THP-1 cells, 10 μM): greater than 20%

SMILES: Cc1cccc2c3c(ccc12)C1=C(C(=O)C3=O)[C@@H](C)CO1 [DHTS, Dihydrotanshinone, reference compound]
Ki (HuR-mRNA interaction; 1-site competition model, RNA 50 nM, Kd 2.5 nM, read-out: Complete Ki): 3.74 ± 1.63 nM
IC50 (HuR-mRNA interaction): 149 ± 34 nM
